Test results: patent US20060150260A1, “Genes related to drug resistance” (Northwestern University, priority 2004, published 2006)

How the values were obtained:
Assay type in all cases: cell-based, human
MCF-7 cells [1] = assay: Apoptosis check: propidium iodide DNA content (FACS) and DNA ladder
Experimental: Cell staining. Propidium iodide (DNA content): cells were permeabilized with cold EtOH, incubated with propidium iodide/RNase staining buffer (BD Bioscience, Calif.) for 15 min at room temperature, and analyzed by flow cytometry.
(§1) Flow Cytometry was performed using a Beckman Coulter Epics XL-MCL (Beckman, Fla.) with System II v. 3.0 software and CYAN (DakoCytomation, Colo.) and Summit v. 3.3 software.

[2] = tested on: MCF-7 cells infected with cDNA inserts B4, B6, D10, E5; assay: Colony forming assay after 4OHTAM treatment, cDNA (RIG)-containing populations
Experimental: (§2) Colony Forming Assay: five hundred cells were plated per 60 mm plate and allowed to recover overnight. […] Treatment continued for 14 days with media replacement every two days; then cells were allowed to recover for two weeks, fixed with alcohol and stained with crystal violet (2% w/v). Colonies (over 150 cells per group) were counted. Experiments were done in triplicate.
(§3) Resistance was determined by colony-forming assay as described in Materials and Methods: plates were stained, and colonies were counted (FIG. 2B); results of the experiment were plotted (FIG. 2C). […] In heterogeneous populations the level of resistance is lower than in single-cell clones (presence of cells without inserts, different levels of expression, etc), so resistance induced by selected cDNAs in individual cells can be much higher. As selected cDNAs induced resistance to 4OHTAM, they were considered to be resistance-inducing genes (RIGs).

[3] = tested on: B6-containing MCF-7 cells; assay: Mitochondrial mass, MitoFluor 589 staining, flow cytometry; conditions: 4OHTAM for 72 hr
Experimental: MitoTracker Red CMXRos (mitochondrial membrane potential) and MitoFluor 589 (mitochondrial mass detection): both dyes were obtained from Molecular Probes, Calif., and added to cells (250 nM final concentration) for 25 min at 37° C. in the CO2 incubator. Cells were then trypsinized and analyzed by flow cytometry or by fluorescent microscope.
as §1
The fate of mitochondria was also examined in experiments assessing mitochondrial activity (FIG. 7C). […] The intracellular content of this organelle on a per cell basis remains fairly constant with only insignificant fluctuations (FIG. 7B), indicating a tight control of the number of mitochondria per cell. 1S A population of B6-containing cells treated with 4OHTAM for 72 hr contains approximately 30% of cells with reduced mitochondrial content (67% have normal mitochondrial content), which is close to the distribution of parental MCF-7 cells treated for 48 hr (FIG. 7B). At the same two timepoints mitochondrial activity distributions are vastly different: a separate low-activity peak for MCF-7 and a barely noticeable asymmetry (“shoulder”) for B6-cells (FIG. 7C). The present invention is not limited to a particular mechanism. […]

MCF-7 cells [4] = assay: Cell growth with 4OHTAM; set-up: cell growth: dose or concentration left out as unconfirmed
Experimental: Cells: MCF-7 (ATCC: HTB-22) cells were grown in Dulbecco's Modified Eagle's medium, 2 mM glutamine, 0.1 mM non-essential amino acids, 10 units/ml of penicillin, 10 μg/ml of streptomycin (all—Invitrogen, Calif.), supplemented with 10% fetal bovine serum (HyClone, Utah), 6 μg/ml of insulin (Sigma, Mo.), 30 μg/ml of fungin, and 10 μg/ml of plasmocin (both—InvivoGen, Calif.). 4-Hydroxytamoxifen (Sigma, Mo.) was used as 10 mM stock solution in ethanol and stored at −20° C.
To gain a better understanding of changes induced by the RIGs, cell growth of RIGs-expressing populations was evaluated with and without 4OHTAM (FIG. 3). In drug-free media the proliferation rate of the B4 RIG-expressing cells was at least equal to parental MCF-7 cells or GFP-expressing control, while for B6, D10 and E5 the proliferation rate was higher (FIG. 3A). […] It is contemplated that cessation of growth for parental and control cells reflects terminal damage and initial stages of cellular demise, whereas for RIG E5-expressing cells cessation of growth is a protective response to drug exposure.

[5] = tested on: GFP-expressing MCF-7 control cells; assay: Colony forming assay after 4OHTAM treatment, GFP control; conditions: 7.5 µM of 4OHTAM, 14 days treatment
Experimental: as §2, §3

4-Hydroxytamoxifen [4OHTAM] was tested. Which “DNA fragmentation pattern (DNA ladder)” value (MCF-7 cells [1]; genomic DNA of 4OHTAM-treated cells) did it give?
Its value is “no characteristic DNA fragmentation pattern (DNA ladder) was detected”.

What about the “apoptotic sub-G1 peak in FACS profiles” value (MCF-7 cells [1]; up to 20 μM 4OHTAM) of the same substance?
Its value is “No evidence was found of a characteristic sub-G1 peak”.

What about the “resistance of cDNA-expressing cells relative to control (EGFP-only) cells” value ([2]; 7.5 μM 4OHTAM, colony-forming assay) of the same substance?
The value was “five-six times more resistant”.

What about the “survival of populations, colony formation assay” value ([2]; cDNA-containing populations, 7.5 µM of 4OHTAM, 14 days treatment) of the same substance?
The value was roughly 65%.

And the “cells with normal mitochondrial content” value [3]?
Its value is 67%.

What about the “cells with reduced mitochondrial content” value [3] of the same substance?
The value was “approximately 30%”.

What about the cell proliferation (MCF-7 cells [4]; 10 mM 4OHTAM, MCF-7 cells) of the same substance?
Its cell proliferation is “blocked”.

What about the cell growth (MCF-7 cells [4]; RIGs-containing and parental cells) of the same substance?
The cell growth was “inhibited”.

What about the “survival of GFP-expressing control, colony formation assay” value [5] of the same substance?
Its value is greater than 10%.
